Reference: patent US7435721B2, “Transport peptides such as C-terminal Erns peptide and analogues thereof” (Pepscan Systems B.V., priority 2000, dated 2008)
Values after ≈ are worked out from the molar mass of the structure shown. Where two headings read alike, the source gives them in different places. *: point of attachment. Biotin = O=C1N[C@H]2[C@H](CS[C@H]2CCCCC(=O)*)N1

Experiments:
guinea pig erythrocytes = assay: Hemolytic assay, guinea pig erythrocytes; assay type: cell-based; details: 1% v/v, one hour at 37° C.
Description: Hemolytic assay. Hemolytic activity of various peptide concentrations was determined by incubation with human, guinea pig or sheep erythrocyte suspensions (final erythrocyte concentration, 1% v/v) for one hour at 37° C. After cooling and centrifugation, the optical density of the supernatants were measured at 540 nm. Peptide concentrations causing 50% hemolysis (EC50) were derived from the dose-response curves.

[1] = test system: live cells in suspension or subconfluent monolayers; assay type: cell-based
[2] = test system: Escherichia coli ATCC 25922; assay: Antimicrobial assay (MIC), E. coli; assay type: cell-based; details: overnight at 37° C.
Description: Antimicrobial assay. Two bacterial strains (Escherichia coli ATCC 25922 and Enterococcus faecalis ATCC 29212) were inoculated on heart infusion agar with 5% sheep blood and incubated aerobically overnight at 37° C. From the pure cultures, suspensions were made in saline to a density of 0.5 McFarland. These suspensions were diluted ten-fold in Mueller Hinton II broth, resulting in a final inoculum of approximately 10^7 cfu/ml.
Standard 96-well microtiter trays were filled with 100 ill of two-fold dilutions of peptide in physiologic salt solution in each well, resulting in the following concentration range: 4000, 2000, 1000, 500, 250, 125, 62.25, 31.63, 15.82, 7.96 and 0 μg/ml. The trays in column 12 were filled with 200 μl MH II broth (negative control).
Columns 1-11 of the microtiter trays were filled with 100 μl of the final inoculum of the bacterial suspensions, thus diluting the concentrations of the peptide two fold, resulting in the following peptide concentration range in the wells: 2000, 1000, 500, 250, 125, 62.25, 31.63, 15.82, 7.96, 3.98 and 0 μg/ml. In rows B, C and D, 100 μl of the final inoculum of E. coli and, in rows E, F and G, 100 μl of the final inoculum of E. faecalis was pipetted. The final bacterial concentration was approximately 5×10^5 cfu/well. All trays were sealed and incubated overnight at 37° C. After incubation, the microtiter trays were inspected visually for bacterial growth and the absorbance of the cultures at 630 nm (A630) was determined with an ELISA-reader. […] The experiment was performed independently in triplicate. The test was repeated again in triplicate after two days with the final peptide concentration range in the wells: 5000, 2500, 1250, 625, 312.5, 156.25, 78.12, 39.06, 19.58, 9.79, 4.88, 2.44 and 1.22 μg/ml.

[3] = test system: fixed cells (Ebtr, SK6, sf-21, Caco-2 and HT-29); assay type: cell-based
human breast skin = human breast skin in vitro, two hours
Description: (§1) Transdermal transport. The potential of the an E^rns peptide to penetrate the skin was tested by applying 150 μl 0.3-4 mM of biotinylated peptide in a chamber containing an isolated piece of “fresh” human breast skin or in a chamber which was glued on the skin of a live pig, or applying 50 μl of peptide solution on the skin with a cotton wool tip, or applying 50 μl of a peptide solution mixed with 50 μl of contact gel on the skin for 30 minutes to 120 minutes. After the incubation time, the pig was killed, the skin was cleaned and biopsied, and a biopsy was frozen in liquid nitrogen. Cryosections of the skin samples were fixed on microscopic slides with acetone and incubated with streptavidin-FITC ( 1/100) for 30 minutes.

skin of a live pig = test system: skin of a live pig
Description: as §1

[4] = Table 9, lower concentration = higher translocation activity

Q: What does the source list for `CC[C@H](C)[C@H](NC(=O)[C@H](CCCNC(=N)N)NC(=O)[C@H](CC(C)C)NC(=O)[C@H](CCC(N)=O)NC(=O)[C@H](CCCNC(=N)N)NC(=O)CNC(=O)[C@H](CC(C)C)NC(=O)[C@H](Cc1c[nH]c2ccccc12)NC(=O)[C@H](CO)NC(=O)[C@@H](NC(=O)[C@@H](NC(=O)[C@H](CCCNC(=N)N)NC(=O)[C@H](C)NC(=O)[C@H](C)NC(=O)CNC(=O)[C@H](CCC(N)=O)NC(=O)[C@H](CCCNC(=N)N)NC(=O)CCCC[C@@H]1SC[C@@H]2NC(=O)N[C@@H]21)C(C)C)[C@@H](C)O)C(=O)N[C@@H](C)C(=O)NCC(=O)N[C@@H](CCCCN)C(=O)N[C@@H](CCCNC(=N)N)C(=O)N[C@@H](CC(C)C)C(=O)N[C@@H](CCC(=O)O)C(=O)NCC(=O)N[C@@H](CCCNC(=N)N)C(=O)N[C@@H](CO)C(=O)N[C@@H](CCCCN)C(N)=O` [194-220]?
A: Peptide concentration that inhibits cell growth (EBTr cells; EBTr, 75 minutes incubation, growth checked after 3 to 6 days): 60 µM; Peptide concentration that inhibits cell growth (HeLa cells; HeLa, 75 minutes incubation, growth checked after 3 to 6 days): 40 µM; Hemolysis (peptide concentration causing 50% hemolysis) (guinea pig erythrocytes): 0.26 mg/mL; Concentration at which biotinylated peptide was still (faintly) detectable [1]: 125 nM; Concentration (translocation activity), optimization of E^rns peptide [1, 4]: 1.0 µM; MIC (minimal inhibitory concentration needed to inhibit bacterial growth) [2]: 50 µg/mL (≈ 15.3 µM)

Q: Which “Hemolysis (peptide concentration causing 50% hemolysis)” value (guinea pig erythrocytes) does the source give for `CC[C@H](C)[C@H](NC(=O)[C@H](CCCNC(=N)N)NC(=O)[C@H](CC(C)C)NC(=O)[C@H](CCC(N)=O)NC(=O)[C@H](CCCNC(=N)N)NC(=O)CNC(=O)[C@H](CC(C)C)NC(=O)[C@H](Cc1c[nH]c2ccccc12)NC(=O)[C@H](CO)NC(=O)[C@@H](NC(=O)[C@@H](NC(=O)[C@H](CCCNC(=N)N)NC(=O)CCCC[C@@H]1SC[C@@H]2NC(=O)N[C@@H]21)C(C)C)[C@@H](C)O)C(=O)N[C@@H](C)C(=O)NCC(=O)N[C@@H](CCCCN)C(=O)N[C@@H](CCCNC(=N)N)C(=O)N[C@@H](CC(C)C)C(=O)N[C@@H](CCC(=O)O)C(=O)NCC(=O)N[C@@H](CCCNC(=N)N)C(=O)N[C@@H](CO)C(=O)N[C@@H](CCCCN)C(N)=O` [199-220] here?
A: 0.18 mg/mL

Q: What about the “MIC (minimal inhibitory concentration needed to inhibit bacterial growth)” value [2] of the same molecule?
A: 23 µg/mL (≈ 8.23 µM)

Q: `CC[C@H](C)[C@H](NC(=O)[C@H](CCCNC(=N)N)NC(=O)[C@H](CC(C)C)NC(=O)[C@H](CCC(N)=O)NC(=O)[C@H](CCCNC(=N)N)NC(=O)CNC(=O)[C@H](CC(C)C)NC(=O)[C@H](Cc1c[nH]c2ccccc12)NC(=O)[C@H](CO)NC(=O)CCCC[C@@H]1SC[C@@H]2NC(=O)N[C@@H]21)C(=O)N[C@@H](C)C(=O)NCC(=O)N[C@@H](CCCCN)C(=O)N[C@@H](CCCNC(=N)N)C(=O)N[C@@H](CC(C)C)C(=O)N[C@@H](CCC(=O)O)C(=O)NCC(=O)N[C@@H](CCCNC(=N)N)C(=O)N[C@@H](CO)C(=O)N[C@@H](CCCCN)C(N)=O` [202-220] was tested. Which “Hemolysis (peptide concentration causing 50% hemolysis)” value (guinea pig erythrocytes) did it give?
A: >0.33 mg/mL

Q: And the “MIC (minimal inhibitory concentration needed to inhibit bacterial growth)” value [2]?
A: 179 µg/mL (≈ 73.5 µM)

Q: How did the “Hemolysis (peptide concentration causing 50% hemolysis)” value (guinea pig erythrocytes) turn out when `CC[C@H](C)[C@H](NC(=O)[C@H](CCCNC(=N)N)NC(=O)[C@H](CC(C)C)NC(=O)[C@H](CCC(N)=O)NC(=O)[C@H](CCCNC(=N)N)NC(=O)CNC(=O)CCCC[C@@H]1SC[C@@H]2NC(=O)N[C@@H]21)C(=O)N[C@@H](C)C(=O)NCC(=O)N[C@@H](CCCCN)C(=O)N[C@@H](CCCNC(=N)N)C(=O)N[C@@H](CC(C)C)C(=O)N[C@@H](CCC(=O)O)C(=O)NCC(=O)N[C@@H](CCCNC(=N)N)C(=O)N[C@@H](CO)C(=O)N[C@@H](CCCCN)C(N)=O` [205-220] was run?
A: >0.33 mg/mL

Q: And the “Concentration (translocation activity), optimization of E^rns peptide” value [1, 4]?
A: 1.0 µM

Q: What about the “MIC (minimal inhibitory concentration needed to inhibit bacterial growth)” value [2] of the same molecule?
A: >500 µg/mL

Q: For “$ENARQGAARVTSWLGRQLRIAGKRLEGRSKTWFGAYA# [191-227]”, which “Peptide concentration that inhibits cell growth” value (EBTr cells) is on record?
A: 50 µM

Q: And the “Peptide concentration that inhibits cell growth” value (HeLa cells)?
A: 50 µM

Q: What about the “Binding to fixed cells” value [3] of the same molecule?
A: able to bind to all tested cell types

Q: And the “Time to optimal fluorescence” value [1]?
A: 30 min

Q: And the “Translocation activity (in words)” value [1]?
A: penetrated inside all cell types

Q: Which results are given for Biotin-GRQLRIAGRRLRGRSR-NH2 [MDK-20]?
A: Concentration (translocation activity), optimization of E^rns peptide [1]: 0.1 µM; Skin penetration of biotinylated peptide (human breast skin): could be visualized with streptavidin-FITC in the epidermis and the dermis; Skin penetration of biotinylated peptide (skin of a live pig; skin of a pig in vivo): same results; Time after application at which penetration into the epidermis was observed (skin of a live pig; skin of a pig in vivo): 30 min

Q: Which results are given for “Biotin-RSRGRLRRGAIRLQRG-Lysine (MTT)- broomacetic acid [A941]”?
A: Concentration (translocation activity), optimization of E^rns peptide [1]: 0.03 µM; Translocation activity (in words) [1]: higher translocation activity compared with the original MDK-20; Accumulation in the skin compared with MDK-20 (skin of a live pig; transdermal transport, skin model not given): Much more accumulation in the skin
